In this test the target is human TRPA1 (Homo sapiens (Human), UniProt O75762). Briefly: hTRPA1 CHO Ca2+ FLIPR assay (block of cinnamaldehyde induced calcium influx). The format is cell-based. The following applies: CHO cells expressing TRPA1; 75 uM cinnamaldehyde; Hill coefficient fixed to 1.5; read-out: hTRPA1 (hTRPA1 CHO Ca2+ MAX EVO (IC50)). Here is the method: CHO cells expressing TRPA1 were plated into 384-well plates, incubated overnight at 37° C., and loaded with BD calcium indicator dye for 1 hr at 37° C. followed by 15 minutes at room temperature. The assay buffer was Hank's Balanced Salt Solution (HBSS) containing 20 mM HEPES (pH readjusted to 7.4) along with 0.02% BSA.
human TRPA1, sequence (O75762 whole entry): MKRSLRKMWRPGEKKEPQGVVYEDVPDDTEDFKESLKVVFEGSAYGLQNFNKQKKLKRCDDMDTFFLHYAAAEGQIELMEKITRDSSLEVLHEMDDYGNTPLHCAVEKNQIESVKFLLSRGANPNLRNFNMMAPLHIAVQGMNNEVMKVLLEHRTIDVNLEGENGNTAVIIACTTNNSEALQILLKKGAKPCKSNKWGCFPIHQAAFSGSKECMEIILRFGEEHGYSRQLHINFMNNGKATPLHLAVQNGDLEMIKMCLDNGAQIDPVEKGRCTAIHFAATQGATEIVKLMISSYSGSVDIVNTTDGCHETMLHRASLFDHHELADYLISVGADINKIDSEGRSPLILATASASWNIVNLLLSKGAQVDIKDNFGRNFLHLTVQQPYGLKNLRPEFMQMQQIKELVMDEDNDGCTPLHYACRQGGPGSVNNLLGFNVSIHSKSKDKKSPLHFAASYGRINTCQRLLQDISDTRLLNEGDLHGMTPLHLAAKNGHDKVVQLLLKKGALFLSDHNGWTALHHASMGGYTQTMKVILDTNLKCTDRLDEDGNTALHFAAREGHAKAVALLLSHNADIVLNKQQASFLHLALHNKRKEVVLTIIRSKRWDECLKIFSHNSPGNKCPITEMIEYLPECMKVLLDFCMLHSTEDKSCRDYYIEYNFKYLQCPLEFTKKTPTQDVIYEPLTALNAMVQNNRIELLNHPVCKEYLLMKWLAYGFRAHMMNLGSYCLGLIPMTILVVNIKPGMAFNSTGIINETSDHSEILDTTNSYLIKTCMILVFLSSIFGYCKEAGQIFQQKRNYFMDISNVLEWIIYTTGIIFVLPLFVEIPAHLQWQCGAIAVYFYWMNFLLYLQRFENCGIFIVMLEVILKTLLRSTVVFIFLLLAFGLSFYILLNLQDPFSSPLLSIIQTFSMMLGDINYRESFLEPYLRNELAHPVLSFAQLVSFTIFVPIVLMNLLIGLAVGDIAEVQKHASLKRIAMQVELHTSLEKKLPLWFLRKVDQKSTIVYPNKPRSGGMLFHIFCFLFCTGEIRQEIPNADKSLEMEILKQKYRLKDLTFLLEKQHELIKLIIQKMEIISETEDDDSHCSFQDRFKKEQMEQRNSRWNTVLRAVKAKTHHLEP
Following dye load and plate cool down, compounds were added to the cells using FLIPR Tetra. Plates were then incubated with compounds for 20 minutes at room temperature prior to adding agonist.
The IC50 results were fit with a standard Hill function, keeping the Hill coefficient (n) fixed to 1.5. Fixing the Hill coefficient will generally reduce variability of the IC50 determination. The IC50 results were individually examined to make sure the MIN and MAX points were set correctly prior to validation of the results.

The term IC50 denotes the midpoint of a concentration-inhibition curve.

Consider `Cc1ccnc2ncn(Cc3nn([C@H]4C[C@](F)(c5ccc(Cl)cc5)C4)c(=O)o3)c(=O)c12` [compound 104, 3-[3-(4-chlorophenyl)-3-fluoro-cyclobutyl]-5-[(5-methyl-4-oxo-pyrido[2,3-d]pyrimidin-3-yl)methyl]-1,3,4-oxadiazol-2-one], for which the concentration for half-maximal inhibition (IC50) was 29.6 nM. As for `Cn1cnc2ncn(Cc3nn([C@H]4CC[C@H](c5ccccc5)C4)c(=O)o3)c(=O)c21` (racemic) [compound 108, 5-[(7-methyl-6-oxo-purin-1-yl)methyl]-3-[rac-(1S,3S)-3-phenylcyclopentyl]-1,3,4-oxadiazol-2-one], the figure is 156 nM; as for `Cc1cc(C#N)nc2ncn(Cc3nn([C@H]4C[C@H](c5ccc(Cl)cc5)C4)c(=O)o3)c(=O)c12` [compound 93, trans-3-[[4-[3-(4-chlorophenyl)cyclobutyl]-5-oxo-1,3,4-oxadiazol-2-yl]methyl]-5-methyl-4-oxo-pyrido[2,3-d]pyrimidine-7-carbonitrile], 4.84 nM; as for `Cc1cnc(Cl)c2ncn(Cc3nn(CCc4ccc(Cl)cc4)c(=O)o3)c(=O)c12` [compound 40, 5-((8-chloro-5-methyl-4-oxopyrido[3,4-d]pyrimidin-3(4H)-yl)methyl)-3-(4-chlorophenethyl)-1,3,4-oxadiazol-2(3H)-one], 18 nM. As for `Cn1cnc2ncn(Cc3nn([C@H]4C[C@H](Oc5cccc(C#N)c5)C4)c(=O)o3)c(=O)c21` [compound 62, 3-[3-[5-[(7-methyl-6-oxo-purin-1-yl)methyl]-2-oxo-1,3,4-oxadiazol-3-yl]cyclobutoxy]benzonitrile], the figure is 45.5 nM; as for `Cn1cnc2cnn(Cc3nn([C@H]4C[C@H](c5ccc(Cl)cc5)C4)c(=O)o3)c(=O)c21` [compound 89, 3-[3-(4-chlorophenyl)cyclobutyl]-5-[(3-methyl-4-oxo-imidazo[4,5-d]pyridazin-5-yl)methyl]-1,3,4-oxadiazol-2-one], 45.7 nM. As for `Cn1cc(C#N)c2ncn(Cc3nn(CCc4ccc(Cl)cc4)c(=O)o3)c(=O)c21` [compound 56, 3-((4-(4-chlorophenethyl)-5-oxo-4,5-dihydro-1,3,4-oxadiazol-2-yl)methyl)-5-methyl-4-oxo-4,5-dihydro-3H-pyrrolo[3,2-d]pyrimidine-7-carbonitrile], the figure is 168 nM; as for `Cn1cnc2ncn(Cc3nn([C@H]4C[C@H](Oc5cccc(Cl)c5)C4)c(=O)o3)c(=O)c21` [compound 70, trans-3-[3-(3-chlorophenoxy)cyclobutyl]-5-[(7-methyl-6-oxo-purin-1-yl)methyl]-1,3,4-oxadiazol-2-one], 17.7 nM.

As for `Cn1cnc2c(C#N)nn(Cc3nc(CCc4ccc(Cl)cc4)no3)c2c1=O` [compound 30, 1-[[3-[2-(4-chlorophenyl)ethyl]-1,2,4-oxadiazol-5-yl]methyl]-6-methyl-7-oxo-pyrazolo[4,3-d]pyrimidine-3-carbonitrile], the half-maximal inhibitory concentration (IC50) was 26.6 nM.

As for `Cn1cnc2ncn(Cc3nn([C@H]4C[C@H](c5ccc(C(F)(F)F)cc5)C4)c(=O)o3)c(=O)c21` [compound 111, 5-[(7-methyl-6-oxo-purin-1-yl)methyl]-3-[3-[4-(trifluoromethyl)phenyl]cyclobutyl]-1,3,4-oxadiazol-2-one], the IC50 came out at 90 nM. For `Cn1cnc2ncn(Cc3nn(CCc4ccc(C(F)F)cc4)c(=O)o3)c(=O)c21` [compound 18, 3-(4-(difluoromethyl)phenethyl)-5-((7-methyl-6-oxo-6H-purin-1(7H)-yl)methyl)-1,3,4-oxadiazol-2(3H)-one], the IC50 worked out at 509 nM. On to `Cn1cnc2ncn(Cc3nn(C[C@H](F)c4ccc(Br)cc4)c(=O)o3)c(=O)c21` [compound 44, (R)-3-(2-(4-bromophenyl)-2-fluoroethyl)-5-((7-methyl-6-oxo-6H-purin-1(7H)-yl)methyl)-1,3,4-oxadiazol-2(3H)-one], for which the IC50 was 10 nM. The result for `Cn1cnc2c(C#N)nn(Cc3nn(CCc4ccc(Cl)cc4)c(=O)o3)c2c1=O` [compound 22, 1-([4-[2-(4-chlorophenyl)ethyl]-5-oxo-4,5-dihydro-1,3,4-oxadiazol-2-yl]methyl)-6-methyl-7-oxo-1H,6H,7H-pyrazolo[4,3-d]pyrimidine-3-carbonitrile] reads 14 nM; that for `O=c1c2cccnc2ncn1Cc1nn([C@H]2C[C@](F)(c3ccc(Cl)cc3)C2)c(=O)o1` [compound 94, trans-3-[3-(4-chlorophenyl)-3-fluoro-cyclobutyl]-5-[(4-oxopyrido[2,3-d]pyrimidin-3-yl)methyl]-1,3,4-oxadiazol-2-one], 16.8 nM. With `Cn1cnc2ncn(Cc3nn([C@H]4C[C@](F)(c5ccc(F)cc5)C4)c(=O)o3)c(=O)c21` [compound 97, 3-[3-fluoro-3-(4-fluorophenyl)cyclobutyl]-5-[(7-methyl-6-oxo-purin-1-yl)methyl]-1,3,4-oxadiazol-2-one], the IC50 was found to be 80.2 nM. The result for `Cn1ccc2cc(CCn3nc(Cn4cnc5ncn(C)c5c4=O)oc3=O)ccc21` [compound 29, 3-[2-(1-methylindol-5-yl)ethyl]-5-[(7-methyl-6-oxo-purin-1-yl)methyl]-1,3,4-oxadiazol-2-one] reads 87 nM.

`Cc1ccnc2ncn(Cc3nn(CC(F)c4ccc(Cl)cc4)c(=O)o3)c(=O)c12` (stereo in doubt) [compound 33, 5-[(5-methyl-4-oxo-pyrido[2,3-d]pyrimidin-3-yl)methyl]-3-[(2R)-2-(4-chlorophenyl)-2-fluoro-ethyl]-1,3,4-oxadiazol-2-one]: the IC50 came out at 180 nM. As for `Cn1cnc2ncn(Cc3nn([C@@H]4C[C@@H](F)[C@@H](c5ccc(Cl)cc5)C4)c(=O)o3)c(=O)c21` (racemic) [compound 82, 5-[(7-methyl-6-oxo-purin-1-yl)methyl]-3-[rac-(1S,3R,4R)-3-(4-chlorophenyl)-4-fluoro-cyclopentyl]-1,3,4-oxadiazol-2-one], the figure is 43.9 nM; as for `Cn1cnc2ncn(Cc3nn(C[C@@H]4CCc5cc(Cl)ccc54)c(=O)o3)c(=O)c21` [compound 49, (R)-3-((5-chloro-2,3-dihydro-1H-inden-1-yl)methyl)-5-((7-methyl-6-oxo-6,7-dihydro-1H-purin-1-yl)methyl)-1,3,4-oxadiazol-2(3H)-one], 61 nM.

For `Cn1cnc2ncn(Cc3nn(CCc4ccc5ccc(C#N)cc5c4)c(=O)o3)c(=O)c21` [compound 36, 7-[2-[5-[(7-methyl-6-oxo-purin-1-yl)methyl]-2-oxo-1,3,4-oxadiazol-3-yl]ethyl]naphthalene-2-carbonitrile], the 50% inhibitory concentration (IC50) stood at 120 nM. The result for `Cc1ccnc2ncn(Cc3nn(C[C@H](F)c4ccc(OC(F)F)cc4)c(=O)o3)c(=O)c12` (racemic) [compound 80, 5-[(5-methyl-4-oxo-pyrido[2,3-d]pyrimidin-3-yl)methyl]-3-[rac-(2R)-2-[4-(difluoromethoxy)phenyl]-2-fluoro-ethyl]-1,3,4-oxadiazol-2-one] reads 11.9 nM; that for `Cn1cnc2ncn(Cc3nn([C@H]4C[C@H](Oc5ccc(Cl)cc5)C4)c(=O)o3)c(=O)c21` [compound 69, 3-[3-(4-chlorophenoxy)cyclobutyl]-5-[(7-methyl-6-oxo-purin-1-yl)methyl]-1,3,4-oxadiazol-2-one], 785 nM. `Cc1cc(CCn2nc(Cn3cnc4ncn(C)c4c3=O)oc2=O)ccc1Cl` [compound 39, 3-(4-chloro-3-methylphenethyl)-5-((7-methyl-6-oxo-6H-purin-1(7H)-yl)methyl)-1,3,4-oxadiazol-2(3H)-one]: the IC50 was 113 nM.

Source of the values: US10913742B2, “Oxadiazolones as transient receptor potential channel inhibitors” (Genentech, Inc., priority 2017, dated 2021).
